Experimental data published in patent publication EP0589484A1, “1,2-Ethanediol derivative and salt thereof, process for producing the same, and cerebral function-improving agent comprising the same” (TOYAMA CHEMICAL CO., LTD., priority 1989, dated 1990).
Structures can show the parent of a compound that is named as a salt.

system: ddY male mice; assay: Acute toxicity; format: in vivo, mouse; details: 50 mg/kg intravenously, group of 3 ddY male mice
Excerpt: A test compound dissolved in physiological saline was intravenously administered to a group of 3 ddY male mice (5-6 weeks old) to examine the acute toxicity of the test compound.

Row | Structure (SMILES) | Acute toxicity
1 | CN(C)CCOCC(O)c1ccc(O)cc1.Cl (centres unmarked) [Compound No. 170, 1-(4-hydroxyphenyl)-2-[2-(N,N-dimethylamino)ethoxy]ethanol hydrochloride] | no death case
2 | OC(COCCN1CCOCC1)c1ccccc1 (centres unmarked) [compound 8] | no death case
3 | Cc1cccc(C(O)COCCN2CCCC2=O)c1 (centres unmarked) [compound 25] | no death case
4 | COc1ccc(C(O)COCCN(C)C)cc1 (centres unmarked) [compound 44] | no death case
5 | CN(C)CCOCC(O)c1ccc2c(c1)OCO2 (centres unmarked) [compound 52] | no death case
6 | CN(C)CCOCC(O)c1cccc(Oc2ccccc2)c1 (centres unmarked) [compound 53] | no death case
7 | OC(COCC1CN(Cc2ccccc2)CCO1)c1ccc(Oc2ccccc2)cc1 (centres unmarked) [compound 147] | no death case
8 | OCC1CCCN1CCOCC(O)c1ccccc1 (centres unmarked) [compound 159] | no death case
9 | CN(CCOCC(O)c1ccccc1)C(=O)C1CCC(=O)N1 (centres unmarked) [compound 160] | no death case

system: ddY female mouse; assay: Effect of test compound on hypoxia (antihypoxic activity); format: in vivo; details: po, 100 mg/kg orally, placed in chamber (4% oxygen, 96% nitrogen) after 1 hour from the administration, survival time relative to control, read-out: Antihypoxic activity (%)
Method: A test compound dissolved in physiological saline (100 mg/kg) was orally administered to a ddY female mouse (5-6 weeks old, each group consisting of 10 mice). After 1 (or 30 minutes*) hour from the administration, each mouse was placed in a 300-ml glass chamber, and a gas mixture consisting of 4% of oxygen and 96% of nitrogen was passed through the chamber at a rate of 5 liters/min. A time from the start of gas passing to the death of each mouse was measured.
To a control mice group was orally administered only physiological saline.
The antihypoxic activity of the test compound was calculated from the following formula: [formula]

Row | Structure (SMILES) | response vs control in vivo at 100 mg/kg [%]
10 | OC(COCCN1CCCCC1)c1cccc(Cl)c1 (centres unmarked) [compound 36] | 139
11 | CN(C)CCOCC(O)c1ccc(OCc2ccc(Cl)cc2)cc1 (centres unmarked) [compound 49] | 151
12 | CN(C)CCOCC(O)c1ccc(-c2ccccc2)cc1 (centres unmarked) [compound 56] | 182
13 | Cc1cccc(C(O)COCC2CNCCO2)c1 (centres unmarked) [compound 152] | 180
14 | OC(COCC1CNCCO1)c1cccc(Cl)c1 (centres unmarked) [compound 153] | 185
15 | OC(COCCN1CCN(C(c2ccccc2)c2ccccc2)CC1)c1ccccc1 (centres unmarked) [compound 167] | 165
16 | CC(=O)N(C)CCOCC(O)c1ccccc1 (centres unmarked) [compound 181] | 132
17 | COC(COCCN(C)C)c1ccc(OCc2ccccc2)cc1 (centres unmarked) [compound 213] | 149
18 | Cn1cncc1COCC(O)c1ccc(OCc2ccccc2)cc1 (centres unmarked) [compound 215, 1-(4-Benzyloxyphenyl)-2-[(1-methylimidazol-5-yl)-methoxy]ethanol] | 197
19 | CN(C)CCOCC(O)c1ccc(F)c2ccccc12 (centres unmarked) [compound 231] | 246
20 | Cc1ccc(C(O)COCCN(C)C)c2ccccc12 (centres unmarked) [compound 232] | 150
21 | OC(COCCN1CCCCC1)c1ccc2ccccc2c1 (centres unmarked) [compound 238] | 123
22 | CCN(CC)CCOCC(O)c1cccc2ccccc12 (centres unmarked) [compound 243] | 159

same assay, conditions: po, 0.5 h, 100 mg/kg orally, placed in chamber (4% oxygen, 96% nitrogen) after 30 minutes from the administration (values marked *), survival time relative to control, read-out: Antihypoxic activity (%)

Row | Structure (SMILES) | response vs control in vivo at 100 mg/kg [%]
23 | Cc1ccccc1C(O)COCCN(C)C (centres unmarked) [compound 14] | 184
24 | CN(C)CCOCC(O)c1ccc(C(C)(C)C)cc1 (centres unmarked) [compound 19] | 168
25 | Cc1cccc(C(O)COCCCCN(C)C)c1 (centres unmarked) [compound 23] | 241
26 | Cc1cc(C)cc(C(O)COCCN(C)C)c1 (centres unmarked) [compound 27] | 201
27 | CN(C)CCOCC(O)c1ccc(OCc2ccccn2)cc1 (centres unmarked) [compound 84] | 175
28 | CN(C)CCOCC(O)c1c(Cl)cccc1Cl (centres unmarked) [compound 96] | 176
29 | COc1cc(C(O)COCCN(C)C)ccc1OCc1ccccc1 (centres unmarked) [compound 98] | 164
30 | OC(COCCN1CCOCC1)c1ccc(OCc2ccccc2)cc1 (centres unmarked) [compound 100] | 171
31 | NCCOCC(O)c1ccccc1 (centres unmarked) [compound 102] | 140
32 | Cc1cccc([C@@H](O)COCCN(C)C)c1 [compound 104] | 160
33 | OC(COCc1cccnc1)c1ccc(OCc2ccccc2)cc1 (centres unmarked) [compound 121] | 149
34 | OC(COCc1ccccn1)c1ccccc1 (centres unmarked) [compound 122] | 142
35 | OC(COCc1ccncc1)c1ccccc1 (centres unmarked) [compound 123] | 140
36 | Cc1cccc(C(O)COCc2cccnc2)c1 (centres unmarked) [compound 125] | 172
37 | O[C@H](COCc1cccnc1)c1ccccc1 [compound 129] | 158
38 | COc1ccc(C(O)COCc2cccnc2)cc1 (centres unmarked) [compound 131] | 167
39 | O[C@@H](COCC1CNCCS1)c1ccccc1 (some centres unmarked) [compound 134] | 201
40 | OC(COCc1c[nH]cn1)c1ccc(OCc2ccccc2)cc1 (centres unmarked) [compound 137] | 163
41 | OC(COCc1cccnc1)c1cccc(Oc2ccccc2)c1 (centres unmarked) [compound 139] | 162
42 | CC(=O)OC(COCCN(C)C)c1cccc(C)c1 (centres unmarked) [compound 180] | 176
43 | CC(=O)OC(COCCN(C)C)c1ccc(-c2ccccc2)cc1 (centres unmarked) [compound 187] | 153
44 | CC(=O)OC(COCc1cccnc1)c1ccccc1 (centres unmarked) [compound 188] | 144
45 | CN1CCN(CCOCC(O)c2ccc(OCc3ccccc3)cc2)CC1 (centres unmarked) [compound 195] | 176
46 | CN(CCOCC(O)c1ccc(OCc2ccccc2)cc1)C1CC1 (centres unmarked) [compound 203] | 177
47 | OC(COCCNC1CC1)c1ccc(OCc2ccccc2)cc1 (centres unmarked) [compound 204] | 176

Row | Structure (SMILES) | response vs control in vivo at 100 mg/kg [%]
48 | Cc1cccc(C(O)COCCNC2CC2)c1 (centres unmarked) [compound 208] | 242
49 | CC(C)(C)NCCOCC(O)c1ccccc1 (centres unmarked) [compound 211] | 177
50 | O[C@H](COC[C@@H]1CNCCO1)c1ccccc1 [compound 218, (1S,2'S)-1-phenyl-2-[(morpholin-2-yl)methoxy]ethanol oxalate] | 157
51 | CC(CN(C)C)OCC(O)c1cccc2ccccc12 (centres unmarked) [compound 250] | 145
52 | CN(C)CCOCC(O)c1ccc2c(c1)CCC2 (centres unmarked) [compound 252] | 190
53 | CN1CCC=C(COCC(O)c2cccc3ccccc23)C1 (centres unmarked) [compound 271] | 150
54 | OC(COCc1cccnc1)c1ccc2ccccc2c1 (centres unmarked) [compound 272] | 185
55 | CN(C)CCOCC(O)c1cccc2ccsc12 (centres unmarked) [compound 320] | 212
56 | OC(COCCN1CCCCC1)c1ccc2sccc2c1 (centres unmarked) [compound 330] | 242
57 | CN(C)CCOCC(O)c1ccc2c(c1)CCS2 (centres unmarked) [compound 332] | 230
58 | CC(COCC(O)c1ccc2sccc2c1)N(C)C (centres unmarked) [compound 338] | 144
59 | OC(COCc1cccnc1)c1ccc2occc2c1 (centres unmarked) [compound 339, 1-(benzo[b]furan-5-yl)-2-(pyridin-3-yl-methxoy)ethanol] | 131
60 | OC(COCc1cccnc1)c1ccc2sccc2c1 (centres unmarked) [compound 340] | 163
61 | OC(COCC1CNCCO1)c1ccc2sccc2c1 (centres unmarked) [compound 343] | 160
62 | CN1CCCC(COCC(O)c2ccc3sccc3c2)C1 (centres unmarked) [compound 344] | 268
63 | CN1CCC=C(COCC(O)c2ccc3sccc3c2)C1 (centres unmarked) [compound 345] | 185
64 | OC(COCCNC1CC1)c1ccc2sccc2c1 (centres unmarked) [compound 348] | 251
65 | CN1CCN(CCOCC(O)c2ccc3sccc3c2)CC1 (centres unmarked) [compound 349] | 209
66 | OC(COCCNC12CC3CC(CC(C3)C1)C2)c1ccc2sccc2c1 (centres unmarked) [compound 353] | 132
67 | NCCOCC(O)c1ccc2sccc2c1 (centres unmarked) [compound 357, 1-(benzo[b]thiophen-5-yl)-2-(2-aminoethoxy)ethanol 1/2 fumarate] | 189
68 | OC(COCc1c[nH]cn1)c1ccc2sccc2c1 (centres unmarked) [compound 358, 1-(benzo[b]thiophen-5-yl)-2-[(imidazolyl)methoxy]ethanol] | 211
69 | CN(C)CCOCC(O)c1ccc2[nH]ccc2c1 (centres unmarked) [compound 365] | 155
70 | OC(COCCCNC1CC1)c1ccc2sccc2c1 (centres unmarked) [compound 383] | 293
71 | OC(COCCCN1CCCCC1)c1ccc2sccc2c1 (centres unmarked) [compound 387] | 228
72 | OC(COCCN1CCN(Cc2ccccc2)CC1)c1ccc2occc2c1 (centres unmarked) [compound 394, dihydrochloride] | 241

same assay, conditions: po, 0.5 h, read-out: Antihypoxic activity (%)

Row | Structure (SMILES) | response vs control in vivo at 100 mg/kg [%]
73 | CN1CCN(CCOCC(O)c2cccc3ccccc23)CC1 (centres unmarked) [compound 259, 2-[2-(4-methylpiperazin-1-yl)ethoxy]-1-(1-naphthyl)ethanol dihydrochloride] | 155
74 | CN(C)CCOCC(O)c1cccc2cccc([N+](=O)[O-])c12 (centres unmarked) [compound 289, 2-[2-(N,N-dimethylamino)ethoxy]-1-(8-nitro-1-naphthyl)ethanol oxalate] | 157
75 | CNCCOCC(O)c1ccc2sccc2c1 (centres unmarked) [compound 347, 1-(benzo[b]thiophen-5-yl)-2-(N-methylaminoethoxy)ethanol hydrochloride] | 162
76 | CCN(CC)CCOCC(O)c1ccc2sccc2c1 (centres unmarked) [compound 388, 2-[2-(N,N-diethylamino)ethoxy]-1-(benzo[b]thiophen-5-yl)ethanol hydrochloride] | 213

same assay, conditions: po, 1 h, read-out: Antihypoxic activity (%)

Row | Structure (SMILES) | response vs control in vivo at 100 mg/kg [%]
77 | CNCCOCC(O)c1cccc2ccccc12 (centres unmarked) [compound 261, 2-[2-(N-methylamino)ethoxy]-1-(1-naphthyl)ethanol hydrochloride] | 126
